In patent US10517889B2, “Modulators of SMAD7 expression” (Ionis Pharmaceuticals, Inc., priority 2017, dated 2019):
Strand notation (5' to 3'): a small letter for the sugar, then the base; units joined by * are phosphorothioate-linked, units joined directly phosphodiester-linked; [ ] holds rarer units or linkages, { } end groups; capitals alone tell only the bases. k = constrained ethyl (cEt); [5mC] = 5-methylcytosine; d = 2'-deoxy (DNA)

test system: human SMAD7 mRNA; assay: Antisense inhibition of human SMAD7 mRNA expression in Hep3B cells by 3-10-3 cEt gapmers, 10,000 nM, electroporation (Example 2); assay type: cell-based; details: Hep3B cells, electroporation with 10,000 nM antisense oligonucleotide, approximately 24 hours, SMAD7 mRNA by RT-PCR (RTS5062), relative to untreated control cells
In short: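 Hep3B cells (20,000 per well) were electroporated with 10,000 nM 16-mer 3-10-3 cEt gapmer (phosphorothioate, 5-methylcytosine). After about 24 h, SMAD7 mRNA was quantified by qRT-PCR with primer probe set RTS5062, normalised to RIBOGREEN total RNA, and expressed as percent inhibition versus untreated cells.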

| Substance | % Inhibition [%] |
| --- | --- |
| 798734 (antisense kG*k[5mC]*k[5mC]*d[5mC]*dG*d[5mC]*dG*dG*d[5mC]*dT*dG*dG*d[5mC]*kG*kG*kG) [compound 798734] | 0 |
| 798735 (antisense k[5mC]*k[5mC]*k[5mC]*d[5mC]*d[5mC]*dG*dG*d[5mC]*d[5mC]*dG*d[5mC]*dG*d[5mC]*k[5mC]*kG*kG) [compound 798735] | 0 |
| 798736 (antisense kG*k[5mC]*kG*d[5mC]*d[5mC]*d[5mC]*d[5mC]*d[5mC]*dG*dG*d[5mC]*d[5mC]*dG*k[5mC]*kG*k[5mC]) [compound 798736] | 0 |
| 798737 (antisense k[5mC]*kA*kG*dA*dT*d[5mC]*d[5mC]*dG*d[5mC]*d[5mC]*dT*d[5mC]*dG*kG*k[5mC]*kG) [compound 798737] | 2 |
| 798738 (antisense k[5mC]*kT*kT*d[5mC]*dA*dG*dA*dT*d[5mC]*d[5mC]*dG*d[5mC]*d[5mC]*kT*k[5mC]*kG) [compound 798738] | 25 |
| 798739 (antisense k[5mC]*kG*k[5mC]*d[5mC]*dT*dT*d[5mC]*dA*dG*dA*dT*d[5mC]*d[5mC]*kG*k[5mC]*k[5mC]) [compound 798739] | 37 |
| 798740 (antisense kT*kT*kG*dA*dG*d[5mC]*dA*d[5mC]*d[5mC]*dG*dA*dG*dT*kG*k[5mC]*kG) [compound 798740] | 56 |
| 798741 (antisense k[5mC]*kT*kT*d[5mC]*dA*dG*dT*dT*dT*d[5mC]*dT*dT*dG*kA*kG*k[5mC]) [compound 798741] | 17 |

same assay, conditions: Hep3B cells, electroporation with 10,000 nM antisense oligonucleotide, approximately 24 hours, primer probe set RTS5062, relative to untreated control cells

| Substance | % inhibition of SMAD7 mRNA expression [%] |
| --- | --- |
| 798724 (antisense k[5mC]*kA*k[5mC]*d[5mC]*dG*d[5mC]*d[5mC]*dT*dT*dG*d[5mC]*d[5mC]*d[5mC]*kA*kG*kG) [compound 798724] | 19 |
| 798725 (antisense kT*k[5mC]*kG*d[5mC]*dA*d[5mC]*d[5mC]*dG*d[5mC]*d[5mC]*dT*dT*dG*k[5mC]*k[5mC]*k[5mC]) [compound 798725] | 29 |
| 798726 (antisense k[5mC]*kA*k[5mC]*d[5mC]*dT*d[5mC]*dG*d[5mC]*dA*d[5mC]*d[5mC]*dG*d[5mC]*k[5mC]*kT*kT) [compound 798726] | 7 |
| 798727 (antisense kT*kG*kG*d[5mC]*dA*d[5mC]*d[5mC]*dT*d[5mC]*dG*d[5mC]*dA*d[5mC]*k[5mC]*kG*k[5mC]) [compound 798727] | 51 |
| 798728 (antisense k[5mC]*kT*kT*dT*dG*dG*d[5mC]*dA*d[5mC]*d[5mC]*dT*d[5mC]*dG*k[5mC]*kA*k[5mC]) [compound 798728] | 41 |
| 798729 (antisense kG*kA*k[5mC]*d[5mC]*dT*dT*dT*dG*dG*d[5mC]*dA*d[5mC]*d[5mC]*kT*k[5mC]*kG) [compound 798729] | 51 |
| 798730 (antisense kG*kG*kT*dG*dA*d[5mC]*d[5mC]*dT*dT*dT*dG*dG*d[5mC]*kA*k[5mC]*k[5mC]) [compound 798730] | 0 |
| 798731 (antisense kG*kG*kT*dG*dG*dT*dG*dA*d[5mC]*d[5mC]*dT*dT*dT*kG*kG*k[5mC]) [compound 798731] | 43 |
| 798732 (antisense kG*kG*kA*dT*dG*dG*dT*dG*dG*dT*dG*dA*d[5mC]*k[5mC]*kT*kT) [compound 798732] | 51 |
| 798742 (antisense k[5mC]*kT*k[5mC]*d[5mC]*dT*dT*d[5mC]*dA*dG*dT*dT*dT*d[5mC]*kT*kT*kG) [compound 798742] | 30 |
| 798743 (antisense kT*kG*k[5mC]*d[5mC]*dG*d[5mC]*dT*d[5mC]*d[5mC]*dT*dT*d[5mC]*dA*kG*kT*kT) [compound 798743] | 19 |
| 798744 (antisense kA*kG*k[5mC]*dT*dG*d[5mC]*d[5mC]*dG*d[5mC]*dT*d[5mC]*d[5mC]*dT*kT*k[5mC]*kA) [compound 798744] | 12 |
